In brackets after ≈: the same amount, converted by molar mass.
Key:
Type in all cases: functional
Lichtheimia corymbifera [1] = test: Antimicrobial activity against Absidia corymbifera conidia after 24 hrs by AFST-EUCAST method
Rhizopus [2] = test: Antimicrobial activity against Rhizopus spp. conidia after 24 hrs by AFST-EUCAST method
Rhizomucor [3] = test: Antimicrobial activity against Rhizomucor spp. conidia after 24 hrs by AFST-EUCAST method
Mucor [4] = test: Antimicrobial activity against Mucor spp. conidia after 24 hrs by AFST-EUCAST method
[5] = system: Syncephalastrum racemosum; test: Antimicrobial activity against Syncephalastrum racemosum conidia after 24 hrs by AFST-EUCAST method
[6] = system: Cunninghamella bertholletiae; test: Antimicrobial activity against Cunninghamella bertholletiae conidia after 24 hrs by AFST-EUCAST method
Lichtheimia corymbifera [7] = test: Antimicrobial activity against Absidia corymbifera hyphae after 24 hrs by AFST-EUCAST method
Rhizopus [8] = test: Antimicrobial activity against Rhizopus spp. hyphae after 24 hrs by AFST-EUCAST method
Rhizomucor [9] = test: Antimicrobial activity against Rhizomucor spp. hyphae after 24 hrs by AFST-EUCAST method
Mucor [10] = test: Antimicrobial activity against Mucor spp. hyphae after 24 hrs by AFST-EUCAST method
[11] = system: Syncephalastrum racemosum; test: Antimicrobial activity against Syncephalastrum racemosum hyphae after 24 hrs by AFST-EUCAST method
[12] = system: Cunninghamella bertholletiae; test: Antimicrobial activity against Cunninghamella bertholletiae hyphae after 24 hrs by AFST-EUCAST method
Rhizomucor [13] = test: Antimicrobial activity against Rhizomucor spp. conidia after 24 hrs by XTT method in presence of amphotericin B
[14] = system: Cunninghamella bertholletiae; test: Antimicrobial activity against Cunninghamella bertholletiae conidia after 24 hrs by XTT method in presence of amphotericin B
Mucor [15] = test: Antimicrobial activity against Mucor spp. conidia after 24 hrs by XTT method in presence of amphotericin B
Rhizopus arrhizus [16] = test: Antimicrobial activity against Rhizopus oryzae conidia after 24 hrs by XTT method in presence of amphotericin B
[17] = Antimicrobial activity against Rhizopus microsporus conidia after 24 hrs by XTT method in presence of amphotericin B
Lichtheimia corymbifera [18] = test: Antimicrobial activity against Absidia corymbifera conidia after 24 hrs by XTT method in presence of amphotericin B
[19] = system: Syncephalastrum racemosum; test: Antimicrobial activity against Syncephalastrum racemosum conidia after 24 hrs by XTT method in presence of amphotericin B
Rhizomucor [20] = test: Antimicrobial activity against Rhizomucor spp. hyphae after 24 hrs by XTT method in presence of amphotericin B
[21] = system: Cunninghamella bertholletiae; test: Antimicrobial activity against Cunninghamella bertholletiae hyphae after 24 hrs by XTT method in presence of amphotericin B
Mucor [22] = test: Antimicrobial activity against Mucor spp. hyphae after 24 hrs by XTT method in presence of amphotericin B
Rhizopus arrhizus [23] = test: Antimicrobial activity against Rhizopus oryzae hyphae after 24 hrs by XTT method in presence of amphotericin B
[24] = Antimicrobial activity against Rhizopus microsporus hyphae after 24 hrs by XTT method in presence of amphotericin B
Lichtheimia corymbifera [25] = test: Antimicrobial activity against Absidia corymbifera hyphae after 24 hrs by XTT method in presence of amphotericin B
[26] = system: Syncephalastrum racemosum; test: Antimicrobial activity against Syncephalastrum racemosum hyphae after 24 hrs by XTT method in presence of amphotericin B

SMILES | MIC (Lichtheimia corymbifera [1]) [µg/mL] | MIC (Rhizopus [2]) [µg/mL] | MIC (Rhizomucor [3]) [µg/mL] | MIC (Mucor [4]) [µg/mL] | MIC [5] [µg/mL] | MIC [6] [µg/mL] | MIC (Lichtheimia corymbifera [7]) [µg/mL] | MIC (Rhizopus [8]) [µg/mL] | MIC (Rhizomucor [9]) [µg/mL] | MIC (Mucor [10]) [µg/mL] | MIC [11] [µg/mL] | MIC [12] [µg/mL] | also measured
C[C@@H]1[C@H](O)[C@@H](C)/C=C/C=C/C=C/C=C/C=C/C=C/C=C/[C@H](O[C@@H]2O[C@H](C)[C@@H](O)[C@H](N)[C@@H]2O)C[C@@H]2O[C@](O)(C[C@@H](O)C[C@@H](O)[C@H](O)CC[C@@H](O)C[C@@H](O)CC(=O)O[C@H]1C)C[C@H](O)[C@H]2C(=O)O [AMPHOTERICIN B] | 0.5 (≈ 0.541 µM) | 0.5 (≈ 0.541 µM) | 0.5 (≈ 0.541 µM) | 0.5 (≈ 0.541 µM) | 0.5 (≈ 0.541 µM) | 0.5 (≈ 0.541 µM) | 1 (≈ 1.08 µM) | 1 (≈ 1.08 µM) | 1 (≈ 1.08 µM) | 1 (≈ 1.08 µM) | 1 (≈ 1.08 µM) | 1 (≈ 1.08 µM) | –
CC[C@@H]([C@H](C)O)n1ncn(-c2ccc(N3CCN(c4ccc(OC[C@@H]5CO[C@@](Cn6cncn6)(c6ccc(F)cc6F)C5)cc4)CC3)cc2)c1=O [POSACONAZOLE] | 0.25 (≈ 0.357 µM) | 0.25 (≈ 0.357 µM) | 0.25 (≈ 0.357 µM) | 0.25 (≈ 0.357 µM) | 0.25 (≈ 0.357 µM) | 0.25 (≈ 0.357 µM) | 1 (≈ 1.43 µM) | 1 (≈ 1.43 µM) | 1 (≈ 1.43 µM) | 1 (≈ 1.43 µM) | 1 (≈ 1.43 µM) | 1 (≈ 1.43 µM) | fractional inhibitory concentration index (FICI) (Rhizomucor [13]): 0.5; fractional inhibitory concentration index (FICI) [14]: 1.1; fractional inhibitory concentration index (FICI) (Mucor [15]): 1.25; fractional inhibitory concentration index (FICI) (Rhizopus arrhizus [16]): 0.75; fractional inhibitory concentration index (FICI) [17]: 0.37; fractional inhibitory concentration index (FICI) (Lichtheimia corymbifera [18]): 0.75; fractional inhibitory concentration index (FICI) [19]: 1; fractional inhibitory concentration index (FICI) (Rhizomucor [20]): 0.75; fractional inhibitory concentration index (FICI) [21]: 0.5; fractional inhibitory concentration index (FICI) (Mucor [22]): 0.5; fractional inhibitory concentration index (FICI) (Rhizopus arrhizus [23]): 1; fractional inhibitory concentration index (FICI) [24]: 0.37; fractional inhibitory concentration index (FICI) (Lichtheimia corymbifera [25]): 0.37; fractional inhibitory concentration index (FICI) [26]: 0.6
